Laboratory results: patent US20240345094A1, “DOUBLE FRAGMENTATION ISOBARIC TAGGING” (Saint Louis University, priority 2023, published 2024)
Entries after “also recorded” stand apart in the source; their conditions may differ.

Test system: Bovine aortic endothelial cells
Test: Changes in thiol metabolism upon γ-glutamyl-cysteine synthetase inhibition (6-plex tagged LC-MS of cell lysates)
Assay type: cell-based
Settings: 250 μM BSO for 16 hours vs reduced-serum media control
Method: Cell culture and lysis: Bovine aortic endothelial cells between passage number 7 and 10 were cultured to confluency in 6 cm plates with Dulbecco's modified eagle medium (DMEM) supplemented with 10% fetal bovine serum (FBS) at 37° C. and 5% CO2. Cell media was swapped with DMEM supplemented with 2% FBS and 250 μM BSO. Control plates were swapped to DMEM with 2% FBS. All plates were lysed after 16 hours as previously described (Filla, L. A., et al., Anal Bioanal Chem 2019, 411 (24), 6399-6407). Briefly, the media was removed and the cells were rapidly rinsed with 1 mL of phosphate-buffered saline. Cells were lysed with the addition of 500 μL of cold 80/20 MeOH/H2O containing 100 mM formic acid and 5 μM of D4 homocysteine as an internal standard. Plates were placed on a dry ice-ethanol bath and the cell contents were collected, then centrifuged at 21,100×g for three minutes. The supernatant was immediately collected and stored on dry ice until derivatization.
Thiol Derivatization: Thiol metabolite stocks were created as individual 500 μM vials with 50/50 H2O/MeOH containing 20 mM formic acid and stored at −20° C. to minimize degradation. Lower concentration stocks were produced by further dilution and derivatized immediately. For cell lysate reactions, 100 μL of the lysate was used for each reaction. Thiol metabolites were added to 100 μL of 100 mM ammonium bicarbonate pH 8. An isotopic iodide tag was then immediately added (100 μL, 100 μM) and left at room temperature to react for 16 hours to ensure a complete reaction. All iodide tags and reactions were handled in the dark to prevent degradation. After the reaction was completed, the samples were mixed with the other isotope variants, dried in a vacuum centrifuge, and reconstituted to 100 μL in the starting mobile phase conditions.
Liquid Chromatography: Fused silica capillary (Polymicro Technologies, Phoenix, AZ) was used to fabricate columns with an inner diameter of 50 μm as previously described (Edwards, J. L., et al, Journal of Chromatography A 2007, 1172 (2), 127-134). Briefly, 50 μm inner diameter capillary was cut to 25 cm, a photopolymerized frit placed 30 mm from the end, then a tip pulled with a Sutter P2000 micropipette puller and etched in 50% HF. The capillary bed was packed to 20 cm with Atlantis silica HILIC 3 μm particles (Waters Corp, Milford, MA). After equilibration the capillary was cut to 17.5 cm for analysis. Flow was delivered by a Thermo Vanquish LC (Thermo Fisher Scientific, Waltham, MA) connected to a stainless steel tee to split the flow. A 50 μm×100 cm open capillary was used as the split to direct 115 nL of the total flow and 4 nL injections to the capillary column (split ratio 1:1500 for bulk flow of 175 μL/min and injection of 6 μL). The split ratio was determined by calculating flow through the capillary based on the experimental dead time and column dimensions. Mobile phase A was pure acetonitrile and mobile phase B was 25 mM ammonium acetate in 80/20 (water/ACN) with 0.05% acetic acid as an additive. The gradient is supplied in Table 1 below.
MS Analysis: A Q-Exactive mass spectrometer (Thermo Fisher Scientific, Waltham, MA) was used for all analyses. An MS^1 survey scan operated at a resolution of 17.5K with an ion injection time of 50 ms and AGC of 1e^6 for m/z 250-650. […] These MS^2 scans operated at a resolution of 140K with an ion injection time of 200 ms, AGC of 1e^5, and the optimized collision energy determined for each analyte. […]

`CCCCS(=N)(=O)CCC(N)C(=O)O` (centres unmarked) [BSO, Buthionine sulfoximine] was tested, and the GSH level change (n=3, FIG. 5B) was “Significant decreases; also recorded: glutathione depletion was observed”, the cysteinyl-glycine level change (n=3, FIG. 5B) was “Significant decreases” and the Glutamyl-cysteine level change (n=3, near the limit of detection) was “did not change significantly”. The cysteine level change (n=3, trended upward) was “did not change” and the homocysteine level change (n=3, trended upward) was “did not change”.
